Reference: patent US12459951B2, “Compounds that interact with RAS superfamily proteins for treatment of cancers, inflammatory diseases, rasopathies, and fibrotic disease” (SHY Therapeutics, LLC, priority 2022, dated 2025)

Key:
Erk1/2 phosphorylation = assay: Erk1/2 Phosphorylation Assay (western blot), Panc-1; type: cell-based, human; settings: at 10 μM, * = activation
Procedure, shortened: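 KRas G12D Panc-1 cells were treated 6 h at 37° C with compound at 10 μM or serial dilutions for IC50 (0.3% DMSO). In method 1, cells were serum-starved overnight (0.5% FBS) and then given 1.5 ng/ml EGF for 15 min. In method 2, cells stayed in 10% FBS without stimulation. Lysate phospho-Erk1/2 (Thr202/Tyr204) was read by western blot.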

KRas G12C mutant = assay: Ras GTP Binding Domain Inhibition Assay (Ras Superfamily Assay); settings: 20 μM compound; for KRas G12C mutant + SOS: % inh.: with SOS; for KRas G12C mutant: % inh.: without SOS
Procedure, shortened: (§1)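 Binding of 100 nM fluorescent GTP (Cy3 or Cy5, 45 min, room temperature) was read after washes from plate-captured His-tagged protein. Beforehand, compounds at 20 μM or in dilution series for IC50 sat 3 h on the protein in Tris buffer pH 7.4 or 7.0 with 1% DMSO, Sos GEF optionally added for the last hour.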

Rac-1 = biological target: T1, Rac-1 (Homo sapiens, UniProt P63000); assay: as above; settings: read-out: Rac-1: % inh.
T1 construct: made in house
Procedure, shortened: as §1

Rho-A = biological target: T2, Rho-A (Homo sapiens, UniProt P61586); assay: as above; settings: read-out: Rho-A: % inh..
T2 construct: made in house
Procedure, shortened: as §1

KRas G12D mutant = assay: as above; settings: 20 μM compound; for KRas G12D mutant + SOS: % inh.: with SOS; for KRas G12D mutant: % inh.: without SOS
Procedure, shortened: as §1

KRas Q61H mutant = assay: as above; settings: 20 μM compound; for KRas Q61H mutant + SOS: % inh.: with SOS; for KRas Q61H mutant: % inh.: without SOS
Procedure, shortened: as §1

KRas wild type = assay: as above; settings: 20 μM compound; for KRas wild type + SOS: % inh.: with SOS; for KRas wild type: % inh.: without SOS
Procedure, shortened: as §1

TNF-alpha = TNF-alpha Quantification Assay (ELISA), LPS-stimulated RAW 264.7; type: cell-based; settings: Mus musculus, RAW264.7; at 10 μM; read-out: TNFα: % inh.

T2 sequence (P61586 whole entry): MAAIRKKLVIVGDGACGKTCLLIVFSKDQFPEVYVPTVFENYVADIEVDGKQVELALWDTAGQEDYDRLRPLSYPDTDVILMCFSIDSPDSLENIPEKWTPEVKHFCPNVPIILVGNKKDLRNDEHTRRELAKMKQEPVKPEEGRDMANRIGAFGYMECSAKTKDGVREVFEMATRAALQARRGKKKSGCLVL

| Structure (SMILES) | KRas G12C mutant + SOS: % inh. (KRas G12C mutant) | KRas G12C mutant: % inh. (KRas G12C mutant) | inhibition at 20 µM (Rac-1) [%] | inhibition at 20 µM (Rho-A) [%] | KRas G12D mutant + SOS: % inh. (KRas G12D mutant) | KRas G12D mutant: % inh. (KRas G12D mutant) | KRas Q61H mutant + SOS: % inh. (KRas Q61H mutant) | KRas Q61H mutant: % inh. (KRas Q61H mutant) | KRas wild type + SOS: % inh. (KRas wild type) | KRas wild type: % inh. (KRas wild type) | % inh of Erk1/2 phosphorylation in Panc-1 (Erk1/2 phosphorylation) | inhibition at 10 µM (TNF-alpha) [%] |
| --- | --- | --- | --- | --- | --- | --- | --- | --- | --- | --- | --- | --- |
| COc1cccc(-c2cn3nc(-c4nccn4C)nc(N[C@H]4C[C@H](OC)C4)c3c2-c2ccn(C)n2)c1F [Compound 47, 6-(2-Fluoro-3-methoxyphenyl)-N-((1r,3r)-3-methoxycyclobutyl)-2-(1-methyl-1H-imidazol-2-yl)-5-(1-methyl-1H-pyrazol-3-yl)pyrrolo[2,1-f][1,2,4]triazin-4-amine] | 0 (0 = 0% inhibition) | 0 (0 = 0% inhibition) | 0 | 1 to 25 | A (A = 1-25% inhibition) | A (A = 1-25% inhibition) | A (A = 1-25% inhibition) | A (A = 1-25% inhibition) | 0 (0 = 0% inhibition) | 0 (0 = 0% inhibition) | C (50-84% inhibition) | 1 to 24 |
| COc1cc(Nc2nc(-c3nccn3C)nn3cc(-c4cccnc4)c(C)c23)ncn1 [Compound 48, N-(6-Methoxypyrimidin-4-yl)-5-methyl-2-(1-methyl-1H-imidazol-2-yl)-6-(pyridin-3-yl)pyrrolo[2,1-f][1,2,4]triazin-4-amine] | A (A = 1-25% inhibition) | C (C = 50-75% inhibition) | 50 to 75 | 76 to 100 | C (C = 50-75% inhibition) | C (C = 50-75% inhibition) | D (D = 76-100% inhibition) | D (D = 76-100% inhibition) | B (B = 26-49% inhibition) | C (C = 50-75% inhibition) | A (1-25% inhibition) | 1 to 24 |
| COc1ccnc(Nc2nc(-c3nccn3C)nn3cc(-c4ccn(C(C)C)n4)c(C)c23)n1 [Compound 53, 6-(1-Isopropyl-1H-pyrazol-3-yl)-N-(4-methoxypyrimidin-2-yl)-5-methyl-2-(1-methyl-1H-imidazol-2-yl)pyrrolo[2,1-f][1,2,4]triazin-4-amine] | C (C = 50-75% inhibition) | C (C = 50-75% inhibition) | 76 to 100 | 76 to 100 | C (C = 50-75% inhibition) | C (C = 50-75% inhibition) | D (D = 76-100% inhibition) | D (D = 76-100% inhibition) | C (C = 50-75% inhibition) | C (C = 50-75% inhibition) | D (85-100% inhibition) | 1 to 24 |
| Cc1c(-c2ccn(C(C)C)n2)cn2nc(-c3nccn3C)nc(Nc3ncccn3)c12 [Compound 54, 6-(1-Isopropyl-1H-pyrazol-3-yl)-5-methyl-2-(1-methyl-1H-imidazol-2-yl)-N-(pyrimidin-2-yl)pyrrolo[2,1-f][1,2,4]triazin-4-amine] | C (C = 50-75% inhibition) | D (D = 76-100% inhibition) | 76 to 100 | 76 to 100 | C (C = 50-75% inhibition) | D (D = 76-100% inhibition) | D (D = 76-100% inhibition) | D (D = 76-100% inhibition) | C (C = 50-75% inhibition) | C (C = 50-75% inhibition) | C (50-84% inhibition) | 1 to 24 |
| Cc1c(-c2ccn(C(C)C)n2)cn2nc(-c3nccn3C)nc(Nc3ccncn3)c12 [Compound 55, 6-(1-Isopropyl-1H-pyrazol-3-yl)-5-methyl-2-(1-methyl-1H-imidazol-2-yl)-N-(pyrimidin-4-yl)pyrrolo[2,1-f][1,2,4]triazin-4-amine] | C (C = 50-75% inhibition) | B (B = 26-49% inhibition) | 76 to 100 | 76 to 100 | C (C = 50-75% inhibition) | D (D = 76-100% inhibition) | D (D = 76-100% inhibition) | D (D = 76-100% inhibition) | C (C = 50-75% inhibition) | D (D = 76-100% inhibition) | A (1-25% inhibition) | 1 to 24 |
| COc1cnc(Nc2nc(-c3nccn3C)nn3cc(-c4ccn(C(C)C)n4)c(C)c23)nc1 [Compound 56, 6-(1-Isopropyl-1H-pyrazol-3-yl)-N-(5-methoxypyrimidin-2-yl)-5-methyl-2-(1-methyl-1H-imidazol-2-yl)pyrrolo[2,1-f][1,2,4]triazin-4-amine] | A (A = 1-25% inhibition) | C (C = 50-75% inhibition) | 50 to 75 | 50 to 75 | B (B = 26-49% inhibition) | B (B = 26-49% inhibition) | D (D = 76-100% inhibition) | C (C = 50-75% inhibition) | 0 (0 = 0% inhibition) | B (B = 26-49% inhibition) | C (50-84% inhibition) | 1 to 24 |
| COc1ccnc(Nc2nc(-c3nccn3C)nn3cc(-c4ccn(C(C)C)n4)c(C)c23)c1 [Compound 58, 6-(1-Isopropyl-1H-pyrazol-3-yl)-N-(4-methoxypyridin-2-yl)-5-methyl-2-(1-methyl-1H-imidazol-2-yl)pyrrolo[2,1-f][1,2,4]triazin-4-amine] | C (C = 50-75% inhibition) | D (D = 76-100% inhibition) | 76 to 100 | 76 to 100 | D (D = 76-100% inhibition) | D (D = 76-100% inhibition) | D (D = 76-100% inhibition) | C (C = 50-75% inhibition) | D (D = 76-100% inhibition) | D (D = 76-100% inhibition) | D (85-100% inhibition) | 1 to 24 |

More lines, main results first:

| KRas G12C mutant + SOS: % inh. (KRas G12C mutant) | KRas G12C mutant: % inh. (KRas G12C mutant) | inhibition at 20 µM (Rac-1) [%] | inhibition at 20 µM (Rho-A) [%] | KRas G12D mutant + SOS: % inh. (KRas G12D mutant) | KRas G12D mutant: % inh. (KRas G12D mutant) | KRas Q61H mutant + SOS: % inh. (KRas Q61H mutant) | KRas Q61H mutant: % inh. (KRas Q61H mutant) | KRas wild type + SOS: % inh. (KRas wild type) | KRas wild type: % inh. (KRas wild type) | Structure (SMILES) | % inh of Erk1/2 phosphorylation in Panc-1 (Erk1/2 phosphorylation) | inhibition at 10 µM (TNF-alpha) [%] |
| --- | --- | --- | --- | --- | --- | --- | --- | --- | --- | --- | --- | --- |
| 0 (0 = 0% inhibition) | A (A = 1-25% inhibition) | 26 to 49 | 26 to 49 | B (B = 26-49% inhibition) | C (C = 50-75% inhibition) | D (D = 76-100% inhibition) | D (D = 76-100% inhibition) | 0 (0 = 0% inhibition) | B (B = 26-49% inhibition) | COc1cc(Nc2nc(-c3nccn3C)nn3cc(-c4ccncc4)c(C)c23)ncn1 [Compound 49, N-(6-Methoxypyrimidin-4-yl)-5-methyl-2-(1-methyl-1H-imidazol-2-yl)-6-(pyridin-4-yl)pyrrolo[2,1-f][1,2,4]triazin-4-amine] | B* (26-49% activation) | 1 to 24 |
| A (A = 1-25% inhibition) | A (A = 1-25% inhibition) | 26 to 49 | 50 to 75 | C (C = 50-75% inhibition) | C (C = 50-75% inhibition) | D (D = 76-100% inhibition) | D (D = 76-100% inhibition) | B (B = 26-49% inhibition) | C (C = 50-75% inhibition) | COc1cc(-c2cn3nc(-c4nccn4C)nc(Nc4cc(OC)ncn4)c3c2C)ccn1 [Compound 50, 6-(2-Methoxypyridin-4-yl)-N-(6-methoxypyrimidin-4-yl)-5-methyl-2-(1-methyl-1H-imidazol-2-yl)pyrrolo[2,1-f][1,2,4]triazin-4-amine] | B* (26-49% activation) | 0 |
| D (D = 76-100% inhibition) | D (D = 76-100% inhibition) | 76 to 100 | 76 to 100 | D (D = 76-100% inhibition) | D (D = 76-100% inhibition) | D (D = 76-100% inhibition) | D (D = 76-100% inhibition) | D (D = 76-100% inhibition) | D (D = 76-100% inhibition) | Cc1c(-c2ccn(C(C)C)n2)cn2nc(-c3nccn3C)nc(Nc3ccccn3)c12 [Compound 57, 6-(1-Isopropyl-1H-pyrazol-3-yl)-5-methyl-2-(1-methyl-1H-imidazol-2-yl)-N-(pyridin-2-yl)pyrrolo[2,1-f][1,2,4]triazin-4-amine] | A* (1-25% activation) | 0 |
